Results as given in patent US20150141506A1, “INDANE DIMERS FOR USE IN THE TREATMENT OF AUTOIMMUNE INFLAMMATORY DISEASE” (Venantius Limited, priority 2012, published 2015).
≈ marks a conversion by molar mass, not a printed value. Entries after “also recorded” stand apart in the source; their conditions may differ. Where two headings read alike, the source gives them in different places.

What was measured:
[1] = tested on: 5% DSS colitis in BDF 1 mice; assay: 5% DSS murine colitis, Experiment 2 (Method 2); type: in vivo; details: day 7, 10 ml/kg oral gavage daily day 0-6, 5-ASA 100 mg/kg; for DAI versus vehicle: 31 at 2 mg/ml, 47 at 4 mg/ml
Source text: A total of 90 BDF 1 (H. Pylori-free, murine norovirus-free) male mice (Harlan Laboratories, UK) were used in the study. Animals were 8-10 weeks old on supply and used at 10-12 weeks of age. All mice were held in individually ventilated cages (IVCs) in an SPF (Specific Pathogen Free) barrier unit. The animals were identified by numbered cages and by ear punches.
Mice were randomised into study groups. All the mice in any one cage received the same treatment and were ear punched for identification purposes. Daily body weight measurements were used to calculate the volume of test item or vehicle administered in the applicable groups.
DSS (MP Biomedicals 0216011090, lot# M2709) was prepared as a 5% (w/v) solution in the drinking water and made fresh daily on days 0 to 6 inclusive. DSS was administered from day 0 to day 7.
Test items were stored at −20° C. until the initiation of the study. Each test item was formulated as a homogenous suspension in 0.5% carboxymethyl cellulose (CMC, Sigma C4888) in sterile water (Sigma W3500, lot# RNBC1419), using an Ultraturax homogeniser, on study day −1. Compound 31 was formulated at 2 mg/ml and 47 was formulated at 4 mg/ml. After formulation the test item and the vehicle stocks anonymised with a letter code. All solutions were stored at 4° C. during the study, with 3.8 ml of each suspension being dispensed daily. Test items were administered by oral gavage, daily at 09.00 hrs, at 10 ml/kg, from study day 0 to study day 6.
5-ASA (5-Aminosalicylic acid, Sigma A3537, lot#051M1878V) was aliquoted into pre-weighed amounts between 71 and 84 mg. Like test item suspensions, these aliquots were anonymised by a letter code. […]
Any animal was culled if the weight loss was greater than 20%. Animal well-being was monitored daily. Once daily from day 0 until the end of the study, all mice were weighed and assessed for stool consistency, and the presence of overt blood in the stool or around the anus according to the criteria in 2.1 […]

[2] = tested on: IL2 release from Jurkat cells; assay: Effect of compounds on IL-2 secretion in T lymphocytes (Jurkat 6.1, anti-CD3/anti-CD28 stimulated, ELISA); type: cell-based; details: 30 min pre-treatment, 24 h, DMSO control 320.67 (plate 2), 338.25 (plate 3)
Experimental: The T cell line Jurkat 6.1 (ATCC) was used. Cells were pre-treated for 30 min with 1 μM or 10 μM of the respective compound and then stimulated with plate-bound anti-CD3 (BD Pharmingen) and anti-CD28 (AnCell). DMSO was used as vehicle control. […] After 24 hs the supernatant was collected and IL-2 secretion was measured by ELISA.
Compounds were prepared by dissolution in DMSO to yield final concentrations of 1 and 10 μg/ml

[3] = Plasma half-life in the rat; type: in vivo; details: read-out: plasma half-life (t1/2) (converted)
[4] = tested on: 5% DSS colitis in BALB/c mice; assay: Acute murine 5% DSS colitis model, Experiment 1; type: in vivo
Source text: The study is widely used as a model for studying the pathogenesis of UC and also for screening new therapeutic interventions for the treatment of UC.
In these studies, an acute colitis model was used, with 5% DSS administered in the drinking water of BALB/c mice. This dosage regime induces severe acute colitis, by days 7-8 mice had overt rectal bleeding and marked weight loss; unless sacrificed beforehand, all mice would have died by days 10-12.
Specific Pathogen-Free BALB/c mice, 6-8 weeks of age, were obtained from a commercial supplier (Harlan UK). Mice were fed irradiated diet and housed in individually ventilated cages (Tecniplast UK) under positive pressure.
DSS (5%) was dissolved in drinking water. Compounds were administered orally at a dose of 10 mg/kg or 30 mg/kg on days 0-7, and mice were culled on day 8 or day 9, depending on the severity of the disease. The mice were checked each day for morbidity and the weight of individual mice was recorded. Induction of colitis was determined upon autopsy, length of colon and histology. Colons were recovered and stored at −20° C. for immunological analysis. All of the compounds and experimental groups are randomly alphabetically labelled. Throughout experiments all data recording was performed in a blind manner. The codes on boxes/groups were not broken until after the data was analysed i.e. boxes labelled A, B, C etc were identified as untreated, DSS-treated, or DSS+compound-treated.
To quantify the extent of colitis, a disease activity index (DAI) was determined based on weight loss, faecal blood and stool consistency. A score was given for each parameter, with the sum of the scores used as the DAI. For each treatment group n=8.
All compounds were prepared for oral gavage (0.1 mL per os (p.o.) per 10 g body weight) as a suspension in 0.5% carboxymethyl cellulose/2% Tween 80, at a dose of 3-30 mg/Kg.

[5] = Solubility in Milli-RO water and pH buffers; type: physicochemical
Experimental: The sodium salt, potassium salt, calcium salt, α-methylbenzylamine salt and N-Methyl-(D)-Glucamine salt were synthesised.
The solubility of the four compounds were determined: […]

[6] = tested on: chronic colitis in IL10-/- BALB/c strain mice; assay: Chronic IL10-/- colitis model; type: in vivo; details: MWF
Experimental: FIG. 15: Is a group showing weight loss in IL10^−−/−− mice treated with vehicle or compound 6. Mice were administered compound 6 (300 mg/kg/week) or vehicle orally on a Monday/Wednesday/Friday (MWF) dosing schedule. Mice were ˜4 weeks of age at start of experiment and were treated for 9 weeks. Mice were weighed weekly and data are presented as Mean±SEM from 9-12 mice per group. Mice were monitored for overt disease, rectal prolapse, and moribund animals were humanely killed;
Mice with a deletion in the IL10^−−/−− gene spontaneously develop chronic colitis, with the age of onset and the severity of the disease being dependent on background mouse strain and the conditions in which the animals are housed. The onset of colitis in IL10^−−/−− mice housed under the conditions used in this study was also strain dependent, with an earlier onset and greater severity, in terms of mortality, in BALB/c strain mice relative to C57BL/6 strain animals. In this experiment, animals received oral treatment on a MWF regime over 9 weeks. Initially, both groups of mice progressively gain weight (FIG. 15). […] By week 9 animals had marked weight loss, with one moribund animal humanely killed on day 60 in each group. As other mice were losing weight and developing clinical symptoms of disease, both groups were culled at week 9 (day 63) and analysed.

[7] = Partition coefficient (Log10 POW) by HPLC method; type: physicochemical; details: reverse phase C18 HPLC
[8] = 3, 10 and 30 mg/Kg oral daily for 7 days

NCC(=O)O[C@@H]1c2ccccc2C[C@@]1(Cc1ccc(C(=O)O)cc1)C1=Cc2ccccc2C1 [Compound 31, 4-{[(1′S,2′S)-1′-(glycyloxy)-1′,3′-dihydro-1H,2′H-2,2′-biinden-2′-yl]methyl}benzoic acid]
DAI versus vehicle [1]: reduced DAI comparable or equal to 5ASA
IL-2 production, absolute values ([2]; compound 1 uM): 233.38 pg/mL
IL-2 production, absolute values ([2]; compound 10 uM): 225.63 pg/mL

O=C(Nc1ccc(O)c(C(=O)O)c1)c1ccc(C[C@@]2(C3=Cc4ccccc4C3)Cc3ccccc3[C@H]2O)cc1 [Compound 47, 2-hydroxy-5-(4-(((1S,2S)-1-hydroxy-2,3-dihydro-1H,1′H-[2,2′-biinden]-2-yl)methyl)benzamido)benzoic acid]
DAI versus vehicle [1]: reduced DAI comparable or equal to 5ASA
loss of body weight versus vehicle control ([1]; 47 formulated at 4 mg/ml): does not result in an increase in loss of body weight
IL-2 production, absolute values ([2]; compound 1 uM): 99.64 pg/mL
IL-2 production, absolute values ([2]; compound 10 uM): 98.79 pg/mL

O=C(O)c1ccc(C[C@@]2(C3=Cc4ccccc4C3)Cc3ccccc3[C@H]2O)cc1 [Compound 6]
half-life [3]: 3 h
colon pathology (histology score) relative to vehicle ([4]; 10 mg/Kg): highly statistically significant reduction
colon pathology (histology score) relative to vehicle ([4]; 30 mg/Kg): highly statistically significant reduction
overt reactions in mice [4, 8]: caused no overt reactions
severity of colitis, multiple parameters of disease [4, 8]: ameliorated the severity of colitis; also recorded: dose-dependent
DAI on the day of autopsy versus vehicle controls ([4]; 3-30 mg/kg, each dose level): significantly (P<0.05-P<0.01) lower
potency compared among the four enantiomers, in words ([4]; 30 and 10 mg/kg): most potent of the four enantiomers
efficacy relative to prednisolone at 5 mg/Kg ([4]; compound 6 at 30 mg/Kg): comparable, or better; also recorded: comparable or better
inhibition of colon shortening versus vehicle controls ([4]; day 7, 3 mg/kg): did not have a significant effect
inhibition of colon shortening versus vehicle controls ([4]; day 7, 10 mg/kg): did have a significant effect
disease activity index (DAI) ([4]; day 7, 10 mg/kg daily for 7 days, vehicle 9.3±0.51): 3.3±0.52
colon cytokine levels (IL1β, TNFα, IL6) ([4]; day 7, 30 mg/kg): significant (P<0.05, 30 mg/kg) and dose-dependant reduction
inhibition of colon shortening versus vehicle controls ([4]; day 7, 30 mg/kg): did have a significant effect; also recorded: significantly better than Prednisolone
reduction of colonic myeloperoxidase (MPO) activity ([4]; day 7, 30 mg/kg): 63%
solubility ([5]; Milli-RO water, water, read-out: solubility, Milli-RO H20): > 60000 µg/mL
solubility ([5]; pH 4.0 buffer, pH 4, aqueous buffer, read-out: solubility, pH 4.0 Buffer): 0.5 µg/mL (≈ 0.00131 mM)
solubility ([5]; pH 7.0 buffer, pH 7, aqueous buffer, read-out: solubility, pH 7.0 Buffer): > 60000 µg/mL
solubility ([5]; pH 9.0 buffer, pH 9, aqueous buffer, read-out: solubility, pH 9.0 Buffer): > 3000 µg/mL
survival by Kaplan-Meier analysis versus vehicle ([6]; 300 mg/kg/week oral, 9 weeks): no statistical difference in survival
weight loss and deaths from colitis relative to vehicle, in words ([6]; 300 mg/kg/week oral, 9 weeks): delayed weight loss and reduced deaths from colitis
mortalities ([6]; 300 mg/kg/week oral, 9 weeks, vehicle 25%): 9.2%
weight gain maintained until ([6]; 300 mg/kg/week oral, vehicle stopped gaining from week 5): 8 week
Serum Amyloid A (SAA) levels relative to vehicle ([6]; week 9, 300 mg/kg/week oral): significantly (P<0.05; Student's t-test) reduced
extent of colon pathology (histology score) relative to vehicle ([6]; week 9, 300 mg/kg/week oral): significantly reduced
Log10 POW, Acid ([7]; acidic pH): 2.6
Log10 POW, Basic ([7]; alkaline pH): 4.3
Log10 POW, Neutral ([7]; neutral pH): 3.5
